This assay relates to P. methanolica cells (strain CBS6515), UV-mutagenized. In words: Nystatin enrichment for auxotrophic mutants; titering of colony forming units of treated versus control cells. The format is cell-based, Pichia methanolica. The note with it: 1 mg nystatin added to remainder of 500 ml culture (50 ml set aside as control) in minimal broth with 5 g/L ammonium sulfate, 1 additional hour with shaking. The procedure: Large-scale mutagenesis was then carried out using a 2-second UV exposure to provide about 20% killing. Cells were plated at approximately 10^4 cells/plate onto eight YEPD plates that were supplemented with 100 mg/L each of uracil, adenine, and leucine, which were added to supplement the growth of potential auxotrophs having the cognate deficiencies. Following UV exposure the plates were wrapped in foil and incubated overnight at 30° C. The following day the colonies on the plates (~10^5 total) were resuspended in water and washed once with water. An amount of cell suspension sufficient to give an OD600 of 0.1-0.2 was used to inoculate 500 ml of minimal broth made with yeast nitrogen base without amino acids or ammonia, supplemented with 1% glucose and 400 μg/L biotin. The culture was placed in a 2.8 L baffled Bell flask and shaken vigorously overnight at 30° C. The following day the cells had reached an OD600 of ~1.0-2.0. The cells were pelleted and resuspended in 500 ml of minimal broth supplemented with 5 g/L ammonium sulfate. The cell suspension was placed in a 2.8 L baffled Bell flask and shaken vigorously at 30° C. for 6 hours. 50 ml of the culture was set aside in a 250-ml flask as a control, and to the remainder of the culture was added 1 mg nystatin (Sigma Chemical Co., St. Louis, Mo.) to select for auxotrophic mutants (Snow, Nature 211:206-207, 1966). […]

The record followed here is patent publication US6153424A, “Protease-deficient strains of Pichia methanolica” (ZymoGenetics, Inc., priority 1999, dated 2000).

For the compound `C[C@@H]1[C@H](O)[C@@H](C)/C=C/C=C/CC/C=C/C=C/C=C/C=C/C(O[C@H]2O[C@H](C)[C@@H](O)[C@H](N)[C@@H]2O)CC2O[C@](O)(CC(O)C(O)CCC(O)CC(O)CC(O)CC(=O)O[C@H]1C)CC(O)C2C(=O)O` (stereo partly shown) [nystatin], the “decrease in the number of viable cells (colony forming units) by a factor” value is recorded as 10^4.
